Measured values published in patent publication US5376658A, “5,10-methylene-tetrahydrofolate as a modulator of a chemotherapeutic agent” (priority 1993, dated 1994).
Like-named read-outs stand apart in the source and are kept apart here. Values belong to the molecule of their own block, whether it stands above or below them.

Key:
[1] = target: T1, thymidylate synthase (TS) (Mus musculus, UniProt P07607); experiment: TS inhibition in murine colon carcinoma tumor CA51 (Tumor 51) after i.p. 5-FU with or without CH2 FH4; type: in vivo; settings: for Free TS / inhibition at 80 mg/kg: 5-FU 80 mg/kg i.p.; for Free TS: CH2 FH4 27 mg/kg in (6R), not corrected; for inhibition at 80 mg/kg: mouse, ip, baseline total TS 10.00 pmol/g
T1 construct: [6-3H]FdUMP titration of free TS
Experimental: (6R, S)-CH2 FH4 was prepared by the DEAE-cellulose column procedure, described above, using step-elution of the material as previously reported for purification of nucleotides (Moran et al., Proc. Natl. Aca. Sci. USA 76:1456-60 (1979)). […] Because of the high formaldehyde, this solution was over 2 mM in CH2 FH4, with less FH4 present as the solution isomer. After 20 min at room temperature, this solution was applied to a 1×3-cm DEAE-cellulose column; in the last step, the 500 mM NH4HCO3 (pH 8.0) fraction (30 mL) was pooled, lyophilized to dryness, and stored under vacuum in glass ampoules. This fraction contains both diastereomers of CH2 FH4.
On the day of reconstituting the above CH2 FH4, mice bearing subcutaneous murine colon carcinoma Tumor 51 were administered intraperitoneal (i.p.) 5-FU, with or without concomitant i.p. CH2 FH4 by separate injection. The 5-FU was given at a dose of 1.6 mg per mouse, about 80 mg/kg. The CH2 FH4 was given at a dose of 0.5 mL of the 2.4 mM material ([…]), above. The in vivo methodologies were essentially as had previously been described (C. P. Spears, et al., Cancer Res. 42:450-56 (1982)). […] The levels of apparent free TS in tumors of mice receiving CH2 FH4 concomitant with 5-FU were at, or below, that level due to exchange-labeling of endogenous TS-FdUMP-folate ternary complexes in the cytosolic extracts. […] This is exactly the qualitative difference between sensitivity and resistance to 5-FU previously established (see Spears et al., Cancer Res. 42:450-52 (1982)).

[2] = tested on: hepatic colonic carcinoma; experiment: Tumor weight in rats bearing transplanted hepatic colonic carcinoma; type: in vivo, rat; settings: Day 17 after transplantation; 30 mg/kg each; average of 3 rats; control 5.84
From the text: (§1) The present inventors have considerable experience with this model, and the antitumor effects of 5-FU shown are typical results, as are the TS and folate assays of control and 5-FU-only-treated rats. […] In fact, the "free TS" levels in the (6R,S)-FH4 -only-treated rats were the lowest of all arms of the study.
>94% by HPLC). The (6 R,S)FH 4 was weighed, dissolved in normal
saline, and injected daily by tail vein administration using the airfree
Protector device to prevent oxidative destruction of the folate.
(§2) ^b Inoculation of 1 × 10^6 viable colon tumor
(§3) (nitrosoguanidineinduced) cells under the liver capsule on Day 1 (Carlsso
(§4) et al., Anticancer Res. 10:813-16 (1990)). Animals sacrificed on Day 17
(§5) for excision of single liver tumor nodules for pharmacodynamic studies.

TS [3] = experiment: TS assay in liver tumors of rats bearing transplanted hepatic colonic carcinoma; type: in vivo, rat; settings: 30 mg/kg each; 24 h after last injection; control 18.96
From the text: as §1, §2, §3, §4, §5
(§6) ^d Assays done as described (Spears et al. Adv. Exp. Med. Biol.

[4] = tested on: 5,10-CH2 FH4 and FH4 levels in liver tumor; experiment: Folate assay (5,10-CH2 FH4 and FH4) in liver tumors of rats; type: in vivo, rat; settings: 30 mg/kg each, 24 h after last injection
From the text: as §1, §2, §3, §4, §5, §6

[5] = target: T1, thymidylate synthase (TS); settings: murine colon cancer; cited from earlier work
L. casei TS-[3H]FdUMP = target: T2, L. casei TS-[3H]FdUMP (Lacticaseibacillus casei, UniProt P00469); experiment: TS-[3H]FdUMP-folate ternary complex binding assay
T2 sequence (P00469 1-316): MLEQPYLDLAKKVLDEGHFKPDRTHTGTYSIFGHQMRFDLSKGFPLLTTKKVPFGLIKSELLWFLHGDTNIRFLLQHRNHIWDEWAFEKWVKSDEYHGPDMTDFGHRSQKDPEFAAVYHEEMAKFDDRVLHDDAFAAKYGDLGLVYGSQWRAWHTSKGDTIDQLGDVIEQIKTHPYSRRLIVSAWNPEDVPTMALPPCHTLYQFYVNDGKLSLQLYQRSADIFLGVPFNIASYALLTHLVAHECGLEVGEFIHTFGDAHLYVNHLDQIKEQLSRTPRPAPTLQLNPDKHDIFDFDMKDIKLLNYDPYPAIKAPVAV
Experimental: The CH2 FH4 was prepared as the racemic (6R, S) material from (6R, S)-FH4 and excess formaldehyde, and DEAE-column isolation as described in FIG. 1. This preparation was essentially free of free formaldehyde based on colorimetric assay of bulk material (Nash, Biochem. J. 55:416-21 (1953)).
At all concentrations (total assays volume 150 μl ), excess formaldeyde was required to obtain maximal binding (which was still only 19.3% of stoichiometric binding). A notable effect was the increasing need for formaldehyde addition with increasing dilution, to obtain maximal CH2 FH4 assay recovery.
TS[^3 H]FdUMP-folate ternary complex formation without formaldehyde
addition was 38.5% of the value for the natural (6R)CH2 FH4 wit
6 mM formaldehyde added. (About 1 pmole of parent CH2 FH4 was
^b Only 11.8 ± 7.9% of maximal L. casei TS[^3 H]FdUMP-folate
ternary complex formation (using 6 mM formaldehyde concentration) which i
(§7) The unnatural diastereomer, (6S)-CH2 FH4 prepared by DEAE-column,potassium bicarbonate separation from the natural diasteromer as described in Example 8, was dissolved in 0.2M Tris-HCl buffer, pH 7.0, containing sodium ascorbate (100 mM) and 2-mercaptoethanol. This preparation was from the same lot of material described in Example 8. As noted in the footnote of Table VII, in the absence of supplemental formaldehyde, the yield of dextrancharcoal isolated complex was 38.5% of the value for the natural (6R)-CH2 FH4 (with added 6 mM formaldehyde).

[6] = tested on: transplanted colon cancer; experiment: Comparison of natural and unnatural CH2 FH4 diastereomers in rats bearing transplanted colon cancer; type: in vivo, rat; settings: 15 mg/kg, Day 17, no fluorinated pyrimidine
From the text: A study has been completed, for comparison of natural (6R)-CH2 FH4 and unnatural (6S)-CH2 FH4 diastereomers. The preparation of the two forms was done as described by Kisliuk, et al., Cancer Treat. Rep. 61:647-50 (1977), using DEAE-cellulose column chromatography, with elution by potassium bicarbonate buffer. The two separate major peaks were individually pooled, lyophilized to dryness, and used for injection. As in the original detailed description of the method of Kisliuk, et al. (Biochem. 20:929-934), the methylene content was substoichiometric with tetrahydrofolate (FH4). That is, methylene units were present in apparently lower concentration than FH4 concentrations.
Rats bearing the transplanted colon cancer, as described in Example 4 and in Carlsson, et al., Anticancer. Res. 10:813-816, 1991, were treated with either the (6R)-CH2 FH4 or the (6S)-CH2 FH4, formulated and injected according to the methods described in Table IV, except that the injected amounts were 15 mg/kg per dose.
At Day 17, the rats were sacrificed, and the tumors were measured for both volume end weight. Volumes were calculated by the equation for an ellipsoid in revolution, V=(4/3)πab^2 were a=the long diameter/2 and b=the perpendicular short diameter/2.
The filled circles are the weights and volumes of tumors of rats treated with the unnatural (6S)-CH2 FH4 diastereomer (mostly (6R)-FH4 material in dilute solution and blood); the triangles are results for the natural (6R)-CH2 FH4 (mostly (6S)-FH4); and the open circles, control non-treated tumors. It is emphasized here that no fluorinated pyrimidine was used, just the folate injections.

L. casei TS = target: T3, L. casei TS (Lacticaseibacillus casei, UniProt P00469); experiment: L. casei/dUMP spectrophotometric cofactor assay; type: biochemical
T3 construct: spectrophotometric cofactor assay with dUMP
T3 sequence (P00469 1-316): T2 sequence (P00469 1-316)
Experimental: CH2 FH4 as the equal mixture of diastereomers (optical isomers or enantiomers at the C6-position; both diastereomers are of the natural L-configuration at the alpha-carbon position of the glutamate moiety) was prepared from (6R,S)-tetrahydrofolic acid, commercially available from Sigma, in the examples described below. The method of synthesis has been described previously (C. P. Spears and B. Gustavsson, Adv. Exp. Med. Biol. 244:98-104 (1988)). To (6R, S)-tetrahydrofolate (6R, S-FH4) powder, (100 mg) is added 360 μL of 1.0M Na Ascorbate, pH 6.5, 68 μL of 37% (w/w) formaldehyde (CH2 O), and 16 mL phosphate buffer, pH 7.0. A 10-min room temperature incubation allows completion of formation of (6R,S)-CH2 FH4. This material is applied to a DEAE-cellulose column using a modification of a well-known procedure (Kaufman et al., J. Biol. Chem. 238:1498-1500 (1963)). A step elution with NH4 HCO3 buffers of increasing concentration and pH, leads to isolation of CH2 FH4 in the last pooled fraction. […] CH2 FH4, prepared with [^14 C]CH2 O as described previously (Moran et al. Proc. Natl. Acad. Sci. USA 76:1456-60, 1979). […]

TS [7] = target: T4, TS (Homo sapiens, UniProt P04818); experiment: TS activity in intact CCRF-CEM human lymphoblast cells by tritiated water release from [5-3H]deoxyuridine; type: cell-based; settings: for tritiated water production: 48 μM; for remaining activity at 48 µM: read-out: tritiated water production, % of control
T4 construct: activity of TS in the intact cells; endogenous in cells; host or cells: CCRF-CEM human lymphoblast cells
Experimental: as §7
Separate cultures tubes at 37° C. with 1 ml each of CCRF-CEM human lymphoblast cells, 4.6×10^5 cells/ml, in exponential log phase growth were exposed to the unnatural diastereomer, (6R)-FH4 (made up from (6S)-CH2 FH4, 1.56 mM stock solution, with 32 microliters added to each ml of cells), 48 μM final concentration. Cells were incubated for 30, 60, and 120 minutes of drug exposure, prior to addition of [5-^3 H]deoxyuridine (150,000 CPM of approx. 18-20 Ci/mmo. spec. act.) and 10 min. 37° C. incubation prior to 3% charcoal addition for isolation of tritiated water. The amount of tritiated water is proportional to the activity of TS in the intact cells (N. Kundu et al., J. Med. Chem. 33:1975-79 (1990)).

[8] = humans; cited from earlier work

T1 sequence (P07607 whole entry): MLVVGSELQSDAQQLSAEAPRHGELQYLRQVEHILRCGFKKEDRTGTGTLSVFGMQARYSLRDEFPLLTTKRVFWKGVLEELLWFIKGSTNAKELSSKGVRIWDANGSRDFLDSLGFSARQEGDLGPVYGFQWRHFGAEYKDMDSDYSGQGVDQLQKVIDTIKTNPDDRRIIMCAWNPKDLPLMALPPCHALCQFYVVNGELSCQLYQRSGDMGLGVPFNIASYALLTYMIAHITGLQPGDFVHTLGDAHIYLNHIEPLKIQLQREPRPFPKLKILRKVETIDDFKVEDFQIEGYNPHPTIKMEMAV
T4 sequence (P04818 whole entry): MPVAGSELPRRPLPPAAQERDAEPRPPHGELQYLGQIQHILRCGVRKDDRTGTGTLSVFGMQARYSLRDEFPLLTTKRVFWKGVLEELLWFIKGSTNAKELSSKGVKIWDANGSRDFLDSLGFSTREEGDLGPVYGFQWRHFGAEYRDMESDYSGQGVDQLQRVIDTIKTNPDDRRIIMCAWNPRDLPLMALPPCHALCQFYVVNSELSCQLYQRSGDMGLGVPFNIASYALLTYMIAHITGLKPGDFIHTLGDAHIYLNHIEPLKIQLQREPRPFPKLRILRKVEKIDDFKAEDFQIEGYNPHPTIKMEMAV

SMILES: O=c1[nH]cc(F)c(=O)[nH]1 [5-FU, 5-Fluorouracil]
Free TS ([1]; 1 h): 1.67 pmol/g
Free TS ([1]; 3 h): 1.00 pmol/g
Free TS ([1]; 6 h): 1.27 pmol/g
TS inhibition, corrected ([1]; minimal correction factor of 5%, average / all tumors): 92%
inhibition at 80 mg/kg ([1]; read-out: % Inhibition (TS), 1 h): 83.3%
inhibition at 80 mg/kg ([1]; read-out: % Inhibition (TS), 3 h): 90%
inhibition at 80 mg/kg ([1]; read-out: % Inhibition (TS), 6 h): 87.3%
Tumor weight [2]: 1.03 g
TS (TS [3]): 9.03 p mole/g
5,10-CH2 FH4 ([4]; control 0.69): 4.11 nmol/g
FH4 ([4]; control 1.18): 2.39 nmol/g
TS inhibition as therapeutic mechanism [5]: complete inhibition of TS

TS-[3H]FdUMP-ternary complex yield, % of value for natural (6R)-CH2 FH4 with 6 mM formaldehyde (L. casei TS-[3H]FdUMP; in the presence of formaldehyde): 23.3%
TS-[3H]FdUMP-folate ternary complex formation, % of value for natural (6R)-CH2 FH4 with 6 mM formaldehyde (L. casei TS-[3H]FdUMP; without formaldehyde addition): 38.5%
cofactor activity (L. casei TS): No cofactor activity
tritiated water production (TS [7]; 30 min exposure, control 2566): 2004 CPM
tritiated water production (TS [7]; 60 min exposure, control 2662): 1750 CPM
tritiated water production (TS [7]; 120 min exposure, control 2902): 1146 CPM
remaining activity at 48 µM (TS [7]; CCRF-CEM, 30 min): 78.1%
remaining activity at 48 µM (TS [7]; CCRF-CEM, 60 min): 65.7%
remaining activity at 48 µM (TS [7]; CCRF-CEM, 120 min): 39.5%
inhibition at 48 µM (TS [7]; CCRF-CEM, two hour time point): 60.5%
SMILES: Nc1nc2c(c(=O)[nH]1)N1CN(c3ccc(C(=O)N[C@@H](CCC(=O)O)C(=O)O)cc3)C[C@@H]1CN2 [(6S)-CH2 FH4]
Tumor volume ± SE ([6]; control 7.81): 0.74
Tumor weight ± SE ([6]; control 7.93): 2.14

SMILES: C=O [CH2 O, formaldehyde]
oral LDLo (lowest lethal dose) [8]: 36 mg/kg
